Results on ten molecules are retold here after ChEMBL document CHEMBL5724558, “Image-based profiling of drug vulnerabilities in CRC organoids” (2024).

Values joined by “and” are separate entries in the source; they are usually repeats but may differ in a detail not shown here. Equal entries are not always repeated.

Type in all cases: functional, Homo sapiens
Common to all, as to set-up: dose or concentration left out as unconfirmed

Test [1] deals with Colon cancer organoid. As to the kind of experiment: Image-based profiling of donated chemical probes and chemogenomic kinase set in O06 CRC organoid. Image analysis is performed on the sum area metric, and the data were normalized to the DMSO control. After imaging the organoid viability is measured using the OneGloEX Luciferase Assay System. The normalized viability data and sum area are reported.

Test [2] relates to Colon cancer organoid. In words: Image-based profiling of donated chemical probes and chemogenomic kinase set in O09 CRC organoid. Image analysis is performed on the sum area metric, and the data were normalized to the DMSO control. After imaging the organoid viability is measured using the OneGloEX Luciferase Assay System. The normalized viability data and sum area are reported.

In test [3] the test system is Colon cancer organoid. As to the kind of experiment: Image-based profiling of donated chemical probes and chemogenomic kinase set in O21 CRC organoid. Image analysis is performed on the sum area metric, and the data were normalized to the DMSO control. After imaging the organoid viability is measured using the OneGloEX Luciferase Assay System. The normalized viability data and sum area are reported.

For `CN1CCN(C(=O)C(C)(C)c2ccc(C(=O)Nc3cn4cc(-c5ccncc5)ccc4n3)cc2)CC1` [T3-CLK], the “Cell Viability” value was 42.3595% and 97.4239% with Colon cancer organoid [1] (Replication number 1); 42.5998% and 77.939% with Colon cancer organoid [1] (Replication number 2); 41.227% and 51.6061% in the test on Colon cancer organoid [2] (Replication number 1); 31.6537% and 31.5444% in the test with Colon cancer organoid [2] (Replication number 2); 57.8975% and 103.622% in the test on Colon cancer organoid [3] (Replication number 1); 54.6627% and 104.082% with Colon cancer organoid [3] (Replication number 2).

Regarding `CCC(=O)N1CCOc2c(cc(-c3ccc(OC)c(OC)c3)cc2OCC2CCCN(C)C2)C1` (stereo not given), the “Cell Viability” value was 144.88% and 142.792% in the test with Colon cancer organoid [1] (Replication number 1); 105.633% and 74.0839% with Colon cancer organoid [1] (Replication number 2); 89.2152% and 99.2272% with Colon cancer organoid [2] (Replication number 1); 160.901% and 114.888% in the test with Colon cancer organoid [2] (Replication number 2); 115.467% and 112.867% with Colon cancer organoid [3] (Replication number 1); 97.0638% and 103.64% in the test with Colon cancer organoid [3] (Replication number 2).

With `CN(C(=O)c1ccccc1)c1cc(N(C)c2ccc3c(c2)CCc2ccc(C(=O)NCCN4CCOCC4)cc2C3=O)ccc1F` [FM-743], the “Cell Viability” value in the test with Colon cancer organoid [1] (Replication number 1) was 90.1876% and 101.781%; in the test on Colon cancer organoid [1] (Replication number 2) it was 105.862% and 118.933%; in the test on Colon cancer organoid [2] (Replication number 1), 89.1217% and 99.5999%; in the test on Colon cancer organoid [2] (Replication number 2), 73.0037% and 91.594%; with Colon cancer organoid [3] (Replication number 1), 111.27% and 106.402%; with Colon cancer organoid [3] (Replication number 2) it was 83.0534% and 97.3827%.

For the molecule `CCN(CC)S(=O)(=O)Nc1cccc(-c2ccc3c(NC(=O)C4CC4)n[nH]c3c2)c1`, the “Cell Viability” value was 115.301% and 130.405% with Colon cancer organoid [1] (Replication number 1); 90.7141% and 75.8621% in the test on Colon cancer organoid [1] (Replication number 2); 118.731% and 102.205% in the test with Colon cancer organoid [2] (Replication number 1); 162.059% and 116.31% in the test with Colon cancer organoid [2] (Replication number 2); 106.348% and 90.1082% with Colon cancer organoid [3] (Replication number 1); 91.5896% and 92.3751% in the test with Colon cancer organoid [3] (Replication number 2).

On to `N#CN1CC[C@@H](C(=O)Nc2nc3c(s2)CN(C(=O)CN=[N+]=[N-])CC3)C1` [JYQ88], for which the “Cell Viability” value in the test with Colon cancer organoid [1] (Replication number 1) was 45.8886% and 74.332%; in the test with Colon cancer organoid [1] (Replication number 2), 68.3691% and 90.3412%; with Colon cancer organoid [2] (Replication number 1) it was 58.2871% and 66.775%; in the test on Colon cancer organoid [2] (Replication number 2) it was 121.196% and 102.102%; with Colon cancer organoid [3] (Replication number 1), 106.224% and 86.2132%; in the test with Colon cancer organoid [3] (Replication number 2), 132.659% and 94.3236%.

With `CN1CCN(c2ccc(-c3cccc(CN4CCOCC4)c3)cc2NC(=O)c2c[nH]c(=O)cc2C(F)(F)F)CC1`, the “Cell Viability” value in the test on Colon cancer organoid [1] (Replication number 1) was 183.315% and 145.933%; in the test with Colon cancer organoid [1] (Replication number 2), 137.387% and 99.6548%; with Colon cancer organoid [2] (Replication number 1), 103.563% and 97.1406%; with Colon cancer organoid [2] (Replication number 2), 155.063% and 99.7783%; in the test with Colon cancer organoid [3] (Replication number 1), 76.0385% and 85.8263%; with Colon cancer organoid [3] (Replication number 2) it was 102.756% and 104.714%.

As to `O=C(NC[C@@H]1[C@H]2CN(C(=O)OCc3cc(C(F)(F)F)cc(C(F)(F)F)c3)C[C@@H]12)c1ccc2[nH]nnc2c1` [BI 2545], the “Cell Viability” value in the test with Colon cancer organoid [1] (Replication number 1) was 131.534% and 122.248%; in the test on Colon cancer organoid [1] (Replication number 2), 107.128% and 130.293%; in the test on Colon cancer organoid [2] (Replication number 1), 189.417% and 138.094%; in the test on Colon cancer organoid [2] (Replication number 2), 118.998% and 92.5885%; in the test on Colon cancer organoid [3] (Replication number 1), 93.6308% and 96.6365%; with Colon cancer organoid [3] (Replication number 2), 84.4904% and 89.2857%.

As to `COc1cc(N(C)c2ccnc3ccc(C(F)(F)F)cc23)cc(OC)c1OC`, the “Cell Viability” value is 100.25% and 97.181% in the test with Colon cancer organoid [1] (Replication number 1); 103.599% and 93.0279% with Colon cancer organoid [1] (Replication number 2); 149.162% and 94.0382% in the test on Colon cancer organoid [2] (Replication number 1); 152.627% and 99.9775% in the test on Colon cancer organoid [2] (Replication number 2); 98.7422% and 93.5085% in the test with Colon cancer organoid [3] (Replication number 1); 96.4741% and 84.441% in the test with Colon cancer organoid [3] (Replication number 2).

Take `CC(C)S(=O)(=O)c1ccc2nccc(Nc3ccc4scnc4c3)c2c1`: the “Cell Viability” value is 90.1117% and 127.973% in the test with Colon cancer organoid [1] (Replication number 1); 127.825% and 117.429% in the test on Colon cancer organoid [1] (Replication number 2); 127.216% and 102.228% with Colon cancer organoid [2] (Replication number 1); 64.4509% and 80.9853% with Colon cancer organoid [2] (Replication number 2); 106.102% and 111.498% with Colon cancer organoid [3] (Replication number 1); 112.549% and 132.422% in the test on Colon cancer organoid [3] (Replication number 2).

For `OCCn1cc(-c2ccc3c(c2)CCC3=NO)c(-c2ccncc2)n1`, the “Cell Viability” value was 89.1031% and 90.5828% in the test with Colon cancer organoid [1] (Replication number 1); 141.492% and 108.175% in the test on Colon cancer organoid [1] (Replication number 2); 111.659% and 102.228% in the test with Colon cancer organoid [2] (Replication number 1); 89.8993% and 62.6286% in the test on Colon cancer organoid [2] (Replication number 2); 88.6835% and 115.401% with Colon cancer organoid [3] (Replication number 1); 96.5689% and 114.574% in the test with Colon cancer organoid [3] (Replication number 2).
